Reference: patent US20260256925A1, “INDAZOLE DERIVATIVES AS ESTROGEN RECEPTOR DEGRADERS” (REGENTS OF THE UNIVERSITY OF MICHIGAN, priority 2022, published 2026)

Tests used:
ER = molecular target: T1, ER (Homo sapiens, UniProt P03372); test: In-cell western blot analysis, relative ER percentage (compounds B1-B126); assay type: cell-based; settings: ER degradation, 16 hours, read-out: ICW DC50
T1 construct: endogenous in cells; probably T47D or MCF-7
T1 sequence (P03372 1-595): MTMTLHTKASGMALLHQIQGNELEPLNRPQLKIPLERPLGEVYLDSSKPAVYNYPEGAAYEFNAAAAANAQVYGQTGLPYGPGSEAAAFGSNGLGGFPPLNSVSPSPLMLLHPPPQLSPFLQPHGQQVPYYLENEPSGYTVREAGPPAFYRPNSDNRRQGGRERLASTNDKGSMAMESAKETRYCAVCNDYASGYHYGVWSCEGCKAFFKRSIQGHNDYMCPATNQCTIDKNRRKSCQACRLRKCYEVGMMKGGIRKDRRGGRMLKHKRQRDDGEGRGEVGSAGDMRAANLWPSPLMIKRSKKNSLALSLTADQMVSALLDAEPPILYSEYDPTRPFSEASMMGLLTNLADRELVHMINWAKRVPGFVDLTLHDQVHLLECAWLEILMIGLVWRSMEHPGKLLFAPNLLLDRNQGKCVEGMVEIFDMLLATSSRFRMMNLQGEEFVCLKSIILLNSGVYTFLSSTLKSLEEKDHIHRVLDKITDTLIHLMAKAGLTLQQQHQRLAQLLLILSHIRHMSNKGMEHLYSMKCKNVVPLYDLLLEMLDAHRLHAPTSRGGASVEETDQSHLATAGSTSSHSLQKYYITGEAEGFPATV
Description: In-cell western blot analysis. Cells are seeded in multi-well plates (e.g., at 40,000 or 10,000 cells/well). Diluted compounds at certain concentration are added (final 0.5% DMSO) and cells are incubated for a certain period of time (e.g., 16 hours). Formaldehyde (e.g., PBS: FA=9:1) is added and followed by washing with PBS. The cells are blocked with Licor blocking buffer (Li-Cor). The relative ER percentage in treated cells are obtained by comparing the values of treated wells to those in untreated and DMSO-treated wells as 100%.
In-cell western blot analysis. a. seed cells in black-sided/clear bottom 96- or 384-well plates at 40,000 or 10,000 cells/well, overnight; b. add diluted compounds (final 0.5% DMSO), 16 hours. […] RT 2h, gentle shaking. Negative control: cells plus secondary antibodies (no primary antibodies); e. wash×4 with PBS +0.05-0.1% Tween 20, gentel shaking; f. anti-rabbit-680 and anti-mouse-800 (both 1:1000 in LiCor block+0.05% Tween20, RT 1h, gentle shaking, no light. LI-COR: 0.2% to reduce background; g. wash×4 with PBS+0.05% Tween 20, gental shaking; h. add 100 μL or 25 μL of PBS to each well and read on CLX plate reader. The relative ER percentage in treated cells were obtained by comparing the values of treated wells to those in untreated and DMSO-treated wells as 100%.

[1] = Cell growth assay, WST-8 (compounds B1-B126); assay type: cell-based; settings: 96 h; T47D cell line, WST-8, 4 days; read-out: Cell growth inhibition in T47D cell line IC50
Description: Cell Growth Assay. The cells are seeded at certain concentration (e.g., at 1500/well) in multi-well plates overnight. Cells are subsequently treated with the compounds. A certain period of time (e.g., 4 days) after the compound treatment, 10% WST-8 reagent is added to the culture medium and incubate under certain condiction (e.g., in a CO2 incubator at 37° C. for 2.5 hours). The absorbance is measured on each sample using a microplate reader at certain wavelength (e.g., 450 nm). The relative absorbance is calculated against the vehicle control from three individually repeats.
Cell Growth Assay. The cells were seeded at 1500/well in 96 well plates overnight. One day after the seeding, they were treated with indicated doses of compounds respectively. 4 days after the compound treatment, 10% WST-8 reagent was added to the culture medium and incubate in a CO2 incubator at 37° C. for 2.5 hours. Before reading, the plate was mixed gently on an orbital shaker for one minute to ensure homogeneous distribution of color. The absorbance was measured of each sample using a microplate reader at a wavelength of 450 nm. The relative absorbance was calculated against the vehicle control from three individually repeats.

SMILES | DC50 (ER) [µM] | IC50 [1] [µM]
C[C@@H]1Cc2c(ccc3[nH]ncc23)[C@@H](c2ccc(N3CCC4(CC3)CC(CN3CCN5c6c(ccc7c6CN(C6CCC(=O)NC6=O)C7=O)OC[C@@H]5C3)C4)cn2)N1CC(F)(F)F (stereo partly drawn) [Compound B109, 3-((S)-9-((7-(6-((6S,8R)-8-methyl-7-(2,2,2-trifluoroethyl)-6,7,8,9-tetrahydro-3H-pyrazolo[4,3-f]isoquinolin-6-yl)pyridin-3-yl)-7-azaspiro[3.5]nonan-2-yl)mcthyl)-3-oxo-1,3,7,7a,8,9,10,11-octahydro-2H-pyrazino[1′,2′:4,5][1,4]oxazino[3,2-e]isoindol-2-yl)piperidine-2,6-dione] | > 0.1 | 0.001 to 0.01
C[C@@H]1Cc2c(ccc3[nH]ncc23)[C@@H](c2cnc(N3CCC4(CC3)CC(CN3CCN5c6ccc7c(c6OC[C@H]5C3)CN(C3CCC(=O)NC3=O)C7=O)C4)nc2)N1CC(F)(F)F (stereo partly drawn) [Compound B112, 3-((R)-7-((7-(5-((6S,8R)-8-methyl-7-(2,2,2-trifluoroethyl)-6,7,8,9-tetrahydro-3H-pyrazolo[4,3-f]isoquinolin-6-yl)pyrimidin-2-yl)-7-azaspiro[3.5]nonan-2-yl)methyl)-1-oxo-1,3,5,5a,6,7,8,9-octahydro-2H-pyrazino[1′,2′:4,5][1,4]oxazino[2,3-e]isoindol-2-yl)piperidine-2,6-dione] | < 0.01 | < 0.001
C[C@@H]1Cc2c(ccc3[nH]ncc23)[C@@H](c2c(F)cc(NC3CC4(C3)CN(C(=O)CN3CCN5c6cc7c(cc6OC[C@@H]5C3)C(=O)N(C3CCC(=O)NC3=O)C7)C4)cc2F)N1CC(F)F (stereo partly drawn) [Compound B39, 3-((S)-3-(2-(6-((4-((6S,8R)-7-(2,2-difluoroethyl)-8-methyl-6,7,8,9-tetrahydro-3H-pyrazolo[4,3-f]isoquinolin-6-yl)-3,5-difluorophenyl)amino)-2-azaspiro[3.3]heptan-2-yl)-2-oxoethyl)-8-oxo-1,2,3,4,4a,5,8,10-octahydro-9H-pyrazino[1′,2′:4,5][1,4]oxazino[2,3-f]isoindol-9-yl)piperidine-2,6-dione] | < 0.01 | < 0.001
C[C@@H]1Cc2c(ccc3[nH]ncc23)[C@@H](c2ccc(N3CC4(CCC(CN5CCN6c7ccc8c(c7OC[C@H]6C5)CN(C5CCC(=O)NC5=O)C8=O)CC4)C3)cn2)N1CC(F)F (stereo partly drawn) [Compound B86, 3-((R)-7-((2-(6-((6S,8R)-7-(2,2-difluoroethyl)-8-methyl-6,7,8,9-tetrahydro-3H-pyrazolo[4,3-f]isoquinolin-6-yl)pyridin-3-yl)-2-azaspiro[3.5]nonan-7-yl)mcthyl)-1-oxo-1,3,5,5a,6,7,8,9-octahydro-2H-pyrazino[1′,2′:4,5][1,4]oxazino[2,3-e]isoindol-2-yl)piperidine-2,6-dione] | < 0.01 | 0.001 to 0.01
COc1cc(N2CCC3(CCN(CC(=O)N4Cc5cc6c(cc5C4)C(=O)N(C4CCC(=O)NC4=O)C6=O)CC3)CC2)ccc1[C@@H]1c2ccc3[nH]ncc3c2C[C@@H](C)N1CC(F)F (stereo partly drawn) [Compound B51, 6-(2-(9-(4-((6S,8R)-7-(2,2-difluoroethyl)-8-methyl-6,7,8,9-tetrahydro-3H-pyrazolo[4,3-f]isoquinolin-6-yl)-3-methoxyphenyl)-3,9-diazaspiro[5.5]undecan-3-yl)acetyl)-2-(2,6-dioxopiperidin-3-yl)-6,7-dihydropyrrolo[3,4-f]isoindole-1,3(2H,5H)-dione] | 0.01 to 0.1 | > 0.01
C[C@@H]1Cc2c(ccc3[nH]ncc23)[C@@H](c2ccc(N3CCC4(CC3)CN(C(=O)CN3CCC5(CC3)COc3c5ccc5c3CN(C3CCC(=O)NC3=O)C5=O)C4)cn2)N1CC(F)(F)F (stereo partly drawn) [Compound B78, 3-(1′-(2-(7-(6-((6S,8R)-8-methyl-7-(2,2,2-trifluoroethyl)-6,7,8,9-tetrahydro-3H-pyrazolo[4,3-f]isoquinolin-6-yl)pyridin-3-yl)-2,7-diazaspiro[3.5]nonan-2-yl)-2-oxoethyl)-6-oxo-6,8-dihydro-2H,7H-spiro[furo[2,3-e]isoindole-3,4′-piperidin]-7-yl)piperidine-2,6-dione] | < 0.01 | < 0.001
COc1cc(N2CC3(CCC(CN4CCN5c6ccc7c(c6OC[C@@H]5C4)CN(C4CCC(=O)NC4=O)C7=O)CC3)C2)ccc1[C@@H]1c2ccc3[nH]ncc3c2C[C@@H](C)N1CC(F)F (stereo partly drawn) [Compound B85, 3-((S)-7-((2-(4-((6S,8R)-7-(2,2-difluoroethyl)-8-methyl-6,7,8,9-tetrahydro-3H-pyrazolo[4,3-f]isoquinolin-6-yl)-3-methoxyphenyl)-2-azaspiro[3.5]nonan-7-yl)methyl)-1-oxo-1,3,5,5a,6,7,8,9-octahydro-2H-pyrazino[1′,2′:4,5][1,4]oxazino[2,3-e]isoindol-2-yl)piperidine-2,6-dione] | 0.01 to 0.1 | > 0.01
C[C@@H]1Cc2c(ccc3[nH]ncc23)[C@@H](c2c(F)cc(N3CCC(CN4CC(N5CCN6c7cc8c(cc7OC[C@@H]6C5)C(=O)N(C5CCC(=O)NC5=O)C8)C4)CC3)cc2F)N1CC(F)F (stereo partly drawn) [Compound B46, 3-((S)-3-(1-((1-(4-((6S,8R)-7-(2,2-difluoroethyl)-8-methyl-6,7,8,9-tetrahydro-3H-pyrazolo[4,3-f]isoquinolin-6-yl)-3,5-difluorophenyl)piperidin-4-yl)methyl)azetidin-3-yl)-8-oxo-1,2,3,4,4a,5,8,10-octahydro-9H-pyrazino[1′,2′:4,5][1,4]oxazino[2,3-f]isoindol-9-yl)piperidine-2,6-dione] | < 0.01 | < 0.001
C[C@@H]1Cc2c(ccc3[nH]ncc23)[C@@H](c2ccc(N3CCC4(CC3)CC(CN3CCN5c6cc7c(cc6OC[C@@H]5C3)C(=O)N(C3CCC(=O)NC3=O)C7)CO4)cn2)N1CC(F)(F)F (stereo partly drawn) [Compound B94, 3-((4aS)-3-((8-(6-((6S,8R)-8-methyl-7-(2,2,2-trifluoroethyl)-6,7,8,9-tetrahydro-3H-pyrazolo[4,3-f]isoquinolin-6-yl)pyridin-3-yl)-1-oxa-8-azaspiro[4.5]decan-3-yl)methyl)-8-oxo-1,2,3,4,4a,5,8,10-octahydro-9H-pyrazino[1′,2′:4,5][1,4]oxazino[2,3-f]isoindol-9-yl)piperidine-2,6-dione] | < 0.01 | < 0.001
C[C@@H]1Cc2c(ccc3[nH]ncc23)[C@@H](c2ccc(N3CCC(CN4CCN5c6ccc(C(=O)N[C@H]7CCC(=O)NC7=O)nc6OC[C@H]5C4)CC3)cn2)N1CC(F)(F)F [Compound B90, (R)-N-((S)-2,6-dioxopiperidin-3-yl)-3-((1-(6-((6S,8R)-8-methyl-7-(2,2,2-trifluoroethyl)-6,7,8,9-tetrahydro-3H-pyrazolo[4,3-f]isoquinolin-6-yl)pyridin-3-yl)piperidin-4-yl)methyl)-1,2,3,4,4a,5-hexahydropyrazino[1,2-d]pyrido[2,3-b][1,4]oxazine-8-carboxamide] | 0.01 to 0.1 | 0.001 to 0.01
C[C@@H]1Cc2c(ccc3[nH]ncc23)[C@@H](c2ccc(N3CCC4(CC3)CC(CN3CCN5c6ccc7c(c6OC[C@@H]5C3)CN(C3CCC(=O)NC3=O)C7=O)C4)cn2)N1CC(F)(F)F (stereo partly drawn) [Compound B107, 3-((S)-7-((7-(6-((6S,8R)-8-methyl-7-(2,2,2-trifluoroethyl)-6,7,8,9-tetrahydro-3H-pyrazolo[4,3-f]isoquinolin-6-yl)pyridin-3-yl)-7-azaspiro[3.5]nonan-2-yl)methyl)-1-oxo-1,3,5,5a,6,7,8,9-octahydro-2H-pyrazino[1′,2′:4,5][1,4]oxazino[2,3-e]isoindol-2-yl)piperidine-2,6-dione] | 0.01 to 0.1 | < 0.001
